# Measurements taken from patent US20190256827A1, “EPIGENOME EDITING SYSTEMS AND METHODS” (STC.UNM, priority 2017, published 2019).
# What was measured:
# Format in all cases: cell-based, human
# [1] = test system: MYOD1 locus in HEK293T cells; test: ChIP-qPCR of FLAG-ABI-P300 and H3K27Ac at the MYOD1 locus; settings: MYOD1 sgRNAs; ABA treatment for 48 hours
# [2] = test system: MYOD1 mRNA in HEK293T cells; test: qPCR of MYOD1 mRNA levels; settings: MYOD1 sgRNAs; ABA vs DMSO
# Experimental: To determine if the new method can be used to modify H3K27Ac at other gene loci, sgRNAs were designed that target the promoter region of other genes with low expression levels in HEK293T cells, including GRM2, HBA and MYOD1 (Table 1).
# Human embryonic kidney cell HEK293T (American Type Culture Collection, Manassas, Va.) was cultured in Dulbecco's modified Eagle's medium (DMEM) (Gibco) with 10% FBS (Atlanta Biologicals), 1× GlutaMax (Gibco, Thermo Fisher Scientific, Inc., Waltham, Mass.), and 1× penicillin/streptomycin (Pen/Strep; Gibco, Thermo Fisher Scientific, Inc., Waltham, Mass.). Cells (100,000/ml) were plated in 24-well or 10-cm cell culture plate the day before transfection. […]
# Total RNA was extracted using the EZNA Total RNA Kit I (Omega Bio-tek, Inc., Norcross, Ga.). qPCR reactions were performed on cDNA prepared from 1,000 ng of total cellular RNA using the High-Capacity cDNA Reverse Transcription Kit (Applied Biosystems Co., Thermo Fisher Scientific, Inc., Foster City, Calif.). […] Data were analyzed using the SDS software, version 2.4 (Applied Biosystems Co., Thermo Fisher Scientific, Inc., Foster City, Calif.), by the ΔΔCt method: the Ct values of target gene were normalized to Ct values of GAPDH, the folds of target gene expression changes were normalized to experimental controls. Analyzed data are reported as the mean±s.e.m. for biological replicates. […]
# [3] = test system: six off-target genes (RHOC, IRF2BP2, TFAM, HSD3B7, METTL2A, CEP250) in HEK293T cells; test: qPCR of mRNA levels of six off-target genes with IL1RN sgRNAs; settings: 100 μM ABA for 24 hours vs DMSO
# Experimental: FIG. 11. Expression of six off-target genes when induced by ABA using sgRNAs designed for IL1RN. dCas9-PYL-HA, FLAG-ABI-P300 and IL1RN sgRNAs were transfected into HEK293T cells for 24 hours. Cells were then treated with 100 μM of ABA for another 24 hours followed by the analysis of mRNA levels of six off-target genes using q-PCR. The fold changes were calculated by comparing ABA treated cells to cells treated with DMSO. Error bars represent ±s.e.m. from biological replicates (n=6).
# It is known that sgRNA/Cas9 can bind to unintended loci, which can lead to off-target effects. To examine if aberrant binding interferes with the interpretation of results, all reported sites in the genome that could potentially be targeted by the IL1RN sgRNAs used in the studies were checked. Changes in the mRNA levels of six genes having TSS close to the off-target sites were monitored (Table 3) after cells were co-transfected with IL1RN sgRNAs, dCas9-PYL-HA and FLAG-ABI-P300 plasmids followed by ABA treatment for 24 hours.
# Total RNA was extracted using the EZNA Total RNA Kit I (Omega Bio-tek, Inc., Norcross, Ga.). qPCR reactions were performed on cDNA prepared from 1,000 ng of total cellular RNA using the High-Capacity cDNA Reverse Transcription Kit (Applied Biosystems Co., Thermo Fisher Scientific, Inc., Foster City, Calif.). […] Analyzed data are reported as the mean±s.e.m. for biological replicates. […]
# [4] = test system: IL1RN mRNA in HEK293T cells; test: qPCR of IL1RN mRNA levels (dCas9-PYL-HA, FLAG-ABI-P300, sgRNAs)
# Experimental: To study how IL1RN expression levels change, total RNAs from the cell lysates generated in the above experiment were purified and then subjected to qPCR analysis to quantify mRNA levels.
# Human embryonic kidney cell HEK293T (American Type Culture Collection, Manassas, Va.) was cultured in Dulbecco's modified Eagle's medium (DMEM) (Gibco) with 10% FBS (Atlanta Biologicals), 1× GlutaMax (Gibco, Thermo Fisher Scientific, Inc., Waltham, Mass.), and 1× penicillin/streptomycin (Pen/Strep; Gibco, Thermo Fisher Scientific, Inc., Waltham, Mass.). Cells (100,000/ml) were plated in 24-well or 10-cm cell culture plate the day before transfection. For each well of 24-well plate transfection, 500 ng of dCas9-PYL-HA, 420 ng of FLAG-ABI-P300, and a total amount of 200-ng mix of gRNAs, with a 50-ng per each gRNA, were mixed with 50×(v/w) Opti-MEM (Gibco, Thermo Fisher Scientific, Inc., Waltham, Mass.), then incubate with the same volume of 3 μg PEI-Opti-MEM solution for 20 minutes at room temperature. Then, 100 μL of PEI-combined plasmids were added to every single well of 24-well plate and cultured for 24 hours before experiments were performed. For a 10 cm plate, 1 mL of PEI-combined plasmids were needed. After six hours transfection, cells were washed and incubated for another 1-72 hours before experiments were performed.
# Total RNA was extracted using the EZNA Total RNA Kit I (Omega Bio-tek, Inc., Norcross, Ga.). qPCR reactions were performed on cDNA prepared from 1,000 ng of total cellular RNA using the High-Capacity cDNA Reverse Transcription Kit (Applied Biosystems Co., Thermo Fisher Scientific, Inc., Foster City, Calif.). TaqMan qPCR probes (Thermo Fisher Scientific, Inc., Waltham, Mass. IL1RN, Hs00893626; GRM2, Hs00968358; HBA, Hs00361191; MYOD1 Hs02330075; GAPDH, Hs99999905) and Fast Advanced Master Mix (Life Technologies Co., Co., Thermo Fisher Scientific, Inc., Carlsbad, Calif.) were used in multiplexed reactions and 384-well format in a 7900HT Fast Real-Time PCR System (Applied Biosystems Co., Thermo Fisher Scientific, Inc., Foster City, Calif.). All measurements were performed at least in triplicate. Data were analyzed using the SDS software, version 2.4 (Applied Biosystems Co., Thermo Fisher Scientific, Inc., Foster City, Calif.), by the ΔΔCt method: the Ct values of target gene were normalized to Ct values of GAPDH, the folds of target gene expression changes were normalized to experimental controls. Analyzed data are reported as the mean±s.e.m. for biological replicates. In ChIP assays, the Ct values of antibodies pulled down segments were normalized to the Ct values of 10% input.
smiles,measurement,setting,value
"CC1=CC(=O)CC(C)(C)[C@@]1(O)/C=C/C(C)=C\C(=O)O [ABA, abscisic acid]",enrichment of FLAG-ABI-P300 at the MYOD1 locus,[1],causes the enrichment
same,enrichment of H3K27Ac at the MYOD1 locus,[1],causes the enrichment
same,level of MYOD1 mRNA,[2],increases correspondingly
same,mRNA levels of six off-target genes,[3],None of the six genes display increases in mRNA levels
same,IL1RN mRNA levels after washing,"[4]; ABA for 12, 24 or 48 hours, then washed",well correlated with the changes in H3K27Ac levels
same,IL1RN mRNA level with P300 mutant (D1399Y) lacking acetyltransferase activity,"[4]; FLAG-ABI-P300 D1399Y, 100 μM ABA for 24 hours",did not increase
same,IL1RN mRNA level,"[4]; cells transfected with ABI-P300, dCas9-PYL and IL1RN sgRNAs, treated with ABA (100 μM, 24 hours)",IL1RN mRNA level increases
same,"IL1RN mRNA when sgRNAs designed for GRM2, HBA or MYOD1 were used","[4]; sgRNAs for GRM2, HBA or MYOD1 in place of IL1RN, 24-hour ABA treatment",no increase in IL1RN mRNA was observed
same,time at which the IL1RN mRNA level increases,[4]; time course after ABA addition,four hours after ABA addition
same,time until which IL1RN mRNA continues to increase rapidly,[4]; time course after ABA addition,about 24 hours
